The results in this text go back to BindingDB's records for doi:10.1074/jbc.M110.109017 (The University of Kansas, 2010).

One may read the Kd as the concentration at which binding is half-saturated. A lower Kd goes with a tighter complex.

In this assay the target is Cytochrome P450 2E1 (Homo sapiens, UniProt P05181). In words: Binding Assay. From the text:
Binding assay using CYP2E1.

Structures are written as SMILES.

Chain of Cytochrome P450 2E1 (P05181 whole entry): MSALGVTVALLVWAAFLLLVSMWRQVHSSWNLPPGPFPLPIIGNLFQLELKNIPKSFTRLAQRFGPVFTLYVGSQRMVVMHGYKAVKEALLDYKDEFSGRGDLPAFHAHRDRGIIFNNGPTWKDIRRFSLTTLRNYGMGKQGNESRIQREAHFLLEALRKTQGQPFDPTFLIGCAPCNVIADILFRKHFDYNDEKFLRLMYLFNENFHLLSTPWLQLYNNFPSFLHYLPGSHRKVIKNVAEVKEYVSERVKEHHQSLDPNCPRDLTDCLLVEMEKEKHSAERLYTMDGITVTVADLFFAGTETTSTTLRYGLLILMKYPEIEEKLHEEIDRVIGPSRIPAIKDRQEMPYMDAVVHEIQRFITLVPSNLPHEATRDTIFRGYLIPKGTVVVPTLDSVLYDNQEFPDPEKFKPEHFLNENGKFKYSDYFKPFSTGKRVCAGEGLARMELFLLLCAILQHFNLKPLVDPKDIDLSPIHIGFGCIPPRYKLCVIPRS

`O=C(O)CCCCCCCCCCCn1ccnc1` [Omega-imidazolyl dodecanoic acid] returned a dissociation constant (Kd) of 1.8 µM.

`O=C(O)CCCCCCCn1ccnc1` displayed a Kd of 21 µM.

In turn, `O=C(O)CCCCCCCCCn1ccnc1` [Omega-imidazolyl decanoic acid] came in with a dissociation constant Kd of 9 µM.
